Measurements taken from patent US11445726B2, “Pyridinium salt and pest control agent” (Nippon Soda Co., Ltd., priority 2017, dated 2022).

Experiments:
Assay type in all cases: in vivo
Thrips palmi = assay: Efficacy test against Thrips palmi (spray on kidney bean leaf piece); details: 125 ppm spray, first instar larvae, 2 days
Protocol: (§1) 5 parts by weight of the compound of the present invention, 93.6 parts by weight of dimethylformamide, and 1.4 parts by weight of polyoxyethylene alkylaryl ether were mixed and dissolved to prepare an emulsion (1) containing 5% of an active ingredient.
1% agar was poured into a plastic petri dish (90 mm diameter), and a primary leaf piece of a kidney bean plant was placed thereon. 15 first instar larvae of T. palmi were inoculated thereon. The emulsion (I) was diluted with water so that the concentration of the compound of the present invention was 125 ppm. The diluent was sprayed on the leaf piece of the kidney bean plant. The petri dish was left to stand in a thermostatic chamber at a temperature of 25° C. and a humidity of 60% during the test period. Mortality of T. palmi was examined 2 days after that, and the insecticidal rate was calculated. The test was repeated twice.

Plutella xylostella = assay: Efficacy test against Plutella xylostella (cabbage leaf dipping); details: 125 ppm, cabbage leaves immersed, second instar larvae, 3 days after release
Protocol: as §1
(§2) The emulsion (I) was diluted with water so that the concentration of the compound of the present invention was 125 ppm. Cabbage leaves were immersed in the diluent for 30 seconds. The cabbage leaves were air dried and placed in a petri dish, and five second instar larvae of P. xylostella were released. The petri dish was left to stand in a thermostatic chamber at a temperature of 25° C. and a humidity of 60% during the test period. Mortality was evaluated when 3 days passed since the release of the insects, and the insecticidal rate was calculated. The test was repeated twice.

Mythimna separata = assay: Efficacy test against Mythimna separata (maize leaf dipping); details: 125 ppm, maize leaf pieces immersed, second instar larvae, 6 days after release
Protocol: as §1
The emulsion (1) was diluted with water so that the concentration of the compound of the present invention was 125 ppm. Maize leaf pieces were immersed in the diluent for 30 seconds. The maize leaf pieces were placed in a petri dish, and five second instar larvae of M. separata were released.
The petri dish was left to stand in a thermostatic chamber at a temperature of 25° C. and a humidity of 60% during the test period. Mortality was evaluated when 6 days passed since the release of the insects, and the insecticidal rate was calculated. The test was repeated twice.

[1] = system: benzoylurea-based insecticide-resistant Helicoverpa armigera; assay: Efficacy test against benzoylurea-based insecticide-resistant Helicoverpa armigera; details: 125 ppm, cabbage leaves immersed, second instar larvae, 3 days
Protocol: as §1
(§3) The emulsion (I) was diluted with water so that the concentration of the compound of the present invention was 125 ppm. Cabbage leaves were immersed in the diluent for 30 seconds. The cabbage leaves were air dried and placed in a petri dish, and 8 second instar larvae of benzoylurea-based insecticide-resistant H. armigera were inoculated.
(§4) The petri dish was left to stand in a thermostatic chamber at a temperature of 25° C. and a humidity of 60% during the test period. Mortality was evaluated when 3 days passed since the release of the insects, and the insecticidal rate was calculated. The test was repeated twice.

[2] = system: diamide-based insecticide-resistant Plutella xylostella; assay: Efficacy test against diamide-based insecticide-resistant Plutella xylostella; details: 125 ppm, cabbage leaves immersed, second instar larvae, 3 days
Protocol: as §1
as §3, with “five” for “8”, “diamide-based” for “benzoylurea-based”, “P. xylostella” for “H. armigera”, “released.” for “inoculated.”
as §4

Spodoptera litura = assay: Efficacy test against Spodoptera litura (cabbage leaf dipping); details: 125 ppm, cabbage leaves immersed, second instar larvae, 6 days after release
Protocol: as §1
as §2, with “emulsion (1)” for “emulsion (I)”, “were” for “were air dried and”, “of S. litura” for “of P. xylostella”, “when 6” for “when 3”

Tetranychus urticae = assay: Efficacy test against Tetranychus urticae (spray on kidney bean plants); details: 125 ppm spray on kidney bean plants, adult females removed after 3 days, surviving individuals 10 days after spraying
Text: as §1
98.6 parts by weight of dimethylformamide, and 1.4 parts by weight of polyoxyethylene alkylaryl ether were mixed and dissolved to prepare an emulsion (11) containing no active ingredient.
Kidney bean plants were raised in No. 3 pots, and 8 adult females of T. urticae from Aomori Prefecture were inoculated on primary leaves. The emulsion (I) was diluted with water so that the concentration of the compound of the present invention was 125 ppm. The diluent was sprayed on the kidney bean plants (treated group).
On the same day, the emulsion (11) was diluted 400 times with water. The diluent was sprayed on the kidney bean plants (untreated group).
The above No. 3 pots were left to stand in a thermostatic chamber at a temperature of 25° C. and a humidity of 65% during the test period. The inoculated adult females of T. urticae were removed with an aspirator 3 days after spraying. Eggs were laid on the leaves. The number of surviving individuals was examined 10 days after spraying, and the control rate was calculated according to the following formula. The test was repeated twice. Control rate (%)=100×[1−Nt/Nc] […]

O=C(N[n+]1ccccc1)c1ccc(Cl)cc1 [comparative compound A]
100%: control rate against T. urticae (Tetranychus urticae)
0%: insecticidal rate against T. palmi (Thrips palmi) | insecticidal rate against P. xylostella (Plutella xylostella) | insecticidal rate against M. separata (Mythimna separata) | insecticidal rate against benzoylurea-based insecticide-resistant H. armigera [1] | insecticidal rate against diamide-based insecticide-resistant P. xylostella [2] | insecticidal rate against S. litura (Spodoptera litura)
